Test results: patent US12162848B2, “Inhibitors of protein tyrosine phosphatase, compositions, and methods of use” (BRISTOL-MYERS SQUIBB COMPANY, priority 2022, dated 2024)
pEC50, pIC50: −log10 of the molar value.

Columns and labels:
[1] = test system: phosphorylated STAT1 protein levels in B16-F10 cells; assay: Phospho-STAT1 (Tyr701) HTRF assay in IFN-gamma treated B16-F10 cells; assay type: cell-based; conditions: mouse IFN-gamma 100 ng/mL, 1 hour, read-out: pSTAT1 HTRF B16 EC50
Procedure, shortened: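 Mouse B16-F10 cells, 10,000/well, pretreated 1 h with compound (0.15% DMSO), then stimulated with mouse IFN-gamma at 100 ng/mL final for 1 h at 37 C. Phospho-STAT1 (Tyr701) measured by HTRF.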

B16-F10 cells = assay: Cell proliferation assay (CellTiter-Glo) in IFN-gamma treated B16-F10 cells; assay type: cell-based; conditions: 120 h, mouse IFN-gamma 10 ng/mL, read-out: PTPN2 Prolif 5d B16F10 EC50
PTPN2 enzyme = biological target: T1, PTPN2 enzyme (Homo sapiens, UniProt P17706); assay: PhosphoSens PTPN2 biochemical assay; conditions: substrate AQT0264 20 μM, room temperature; read-out: PTPN2 BCHEM IC50
T1 sequence (P17706 1-415): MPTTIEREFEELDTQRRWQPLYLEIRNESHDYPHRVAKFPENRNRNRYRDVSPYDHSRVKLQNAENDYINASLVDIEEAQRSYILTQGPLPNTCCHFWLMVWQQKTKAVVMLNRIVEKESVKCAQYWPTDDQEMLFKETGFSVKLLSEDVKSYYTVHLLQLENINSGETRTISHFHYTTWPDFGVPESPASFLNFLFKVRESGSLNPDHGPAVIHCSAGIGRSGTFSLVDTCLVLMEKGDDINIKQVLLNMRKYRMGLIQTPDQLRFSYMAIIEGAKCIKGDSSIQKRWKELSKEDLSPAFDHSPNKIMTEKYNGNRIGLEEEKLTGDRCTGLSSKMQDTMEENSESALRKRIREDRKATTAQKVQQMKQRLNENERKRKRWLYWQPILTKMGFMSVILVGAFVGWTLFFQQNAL
Procedure, shortened: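 PhosphoSens fluorescence format with 20 μM final AQT0264 substrate and […] in 50 mM HEPES pH 7.5, 500 μM EGTA, […], 0.01% Brij-35, 1% glycerol, 1 mM DTT, 0.2 mg/mL BSA. Compounds in 3-fold dilution series; progress curves read (ex 360/em 480 nm) every 71 s for 1 h at room temperature.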

| SMILES | pEC50 [1] | pEC50 (B16-F10 cells) | pIC50 (PTPN2 enzyme) |
| --- | --- | --- | --- |
| CC(C)CCN1CCC[C@H](NCc2cc(O)c(N3CC(=O)NS3(=O)=O)c(F)c2)C1 [EXAMPLE 63, 5-[2-fluoro-6-hydroxy-4-[[[(3S)-1-isopentyl-3-piperidyl]amino]methyl]phenyl]-1,1-dioxo-1,2,5-thiadiazolidin-3-one] | ≤ 4.82 | ≤ 4.82 | 6.82 |
| O=C1CN(c2c(O)cc(CN[C@@H]3CCCOC3)cc2F)S(=O)(=O)N1 [EXAMPLE 64, (R)-5-(2-fluoro-6-hydroxy-4-(((tetrahydro-2H-pyran-3-yl)amino)methyl)phenyl)-1,2,5-thiadiazolidin-3-one 1,1-dioxide] | 5.66 | 5.57 | 6.86 |
| O=C1CN(c2c(O)cc(CN[C@H]3CCCNC3)cc2F)S(=O)(=O)N1 [EXAMPLE 65, (S)-5-(2-fluoro-6-hydroxy-4-((piperidin-3-ylamino)methyl)phenyl)-1,2,5-thiadiazolidin-3-one 1,1-dioxide] | 5.28 | 5.16 | 6.89 |
| CC(=O)N1CCC[C@H](NCc2cc(O)c(N3CC(=O)NS3(=O)=O)c(F)c2)C1 [EXAMPLE 71, 5-[4-[[[(3S)-1-acetyl-3-piperidyl]amino]methyl]-2-fluoro-6-hydroxy-phenyl]-1,1-dioxo-1,2,5-thiadiazolidin-3-one] | 5.54 | 5.72 | 7.60 |
| O=C1CN(c2c(O)cc(CN[C@H]3CCCN(S(=O)(=O)C4CC4)C3)cc2F)S(=O)(=O)N1 [EXAMPLE 73, 5-[4-[[[(3S)-1-cyclopropylsulfonyl-3-piperidyl]amino]methyl]-2-fluoro-6-hydroxy-phenyl]-1,1-dioxo-1,2,5-thiadiazolidin-3-one] | 5.11 | 5.01 | 8.00 |
| CS(=O)(=O)N1CCC[C@H](NCc2cc(O)c(N3CC(=O)NS3(=O)=O)c(F)c2)C1 [EXAMPLE 75, 5-[2-fluoro-6-hydroxy-4-[[[(3S)-1-methylsulfonyl-3-piperidyl]amino]methyl]phenyl]-1,1-dioxo-1,2,5-thiadiazolidin-3-one] | 5.49 | 5.66 | 7.43 |
| O=C(O)CC(=O)N1CCC[C@H](NCc2cc(O)c(N3CC(=O)NS3(=O)=O)c(F)c2)C1 [EXAMPLE 76, 3-[(3S)-3-[[3-fluoro-5-hydroxy-4-(1,1,4-trioxo-1,2,5-thiadiazolidin-2-yl)phenyl]methylamino]-1-piperidyl]-3-oxo-propanoic acid] | ≤ 4.82 | ≤ 4.82 | 7.92 |
| O=C1CN(c2c(O)cc(CNc3cc(F)ccc3Cl)cc2F)S(=O)(=O)N1 [EXAMPLE 80, 5-[4-[(2-chloro-5-fluoro-anilino)methyl]-2-fluoro-6-hydroxy-phenyl]-1,1-dioxo-1,2,5-thiadiazolidin-3-one] | ≤ 4.82 | ≤ 4.82 | 7.30 |
| NC1CCN(c2cc(O)c(N3CC(=O)NS3(=O)=O)c(F)c2)CC1 [EXAMPLE 84, 5-(4-(4-aminopiperidin-1-yl)-2-fluoro-6-hydroxyphenyl)-1,2,5-thiadiazolidin-3-one 1,1-dioxide] | ≤ 4.82 | ≤ 4.82 | 6.13 |
| O=C1CN(c2c(O)cc(N3CCNCC3)cc2F)S(=O)(=O)N1 [EXAMPLE 85, 5-(2-fluoro-6-hydroxy-4-(piperazin-1-yl)phenyl)-1,2,5-thiadiazolidin-3-one 1,1-dioxide] | 5.26 | ≤ 4.82 | 6.17 |
| CC(C)CCN1CCC(Nc2cc(O)c(N3CC(=O)NS3(=O)=O)c(F)c2)CC1 [EXAMPLE 89, 5-(2-fluoro-6-hydroxy-4-((1-isopentylpiperidin-4-yl)amino)phenyl)-1,2,5-thiadiazolidin-3-one 1,1-dioxide] | ≤ 4.82 | ≤ 4.82 | 6.12 |

Next, values leading:

| pEC50 [1] | pEC50 (B16-F10 cells) | pIC50 (PTPN2 enzyme) | SMILES |
| --- | --- | --- | --- |
| 6.11 | 6.11 | 7.38 | CC1(C)CCC[C@H](NCc2cc(O)c(N3CC(=O)NS3(=O)=O)c(F)c2)C1 [EXAMPLE 66, (S)-5-(4-(((3,3-dimethylcyclohexyl)amino)methyl)-2-fluoro-6-hydroxyphenyl)-1,2,5-thiadiazolidin-3-one 1,1-dioxide] |
| 5.57 | 5.78 | 6.90 | O=C1CN(c2c(O)cc(CN[C@H]3CCCOC3)cc2F)S(=O)(=O)N1 [EXAMPLE 67, (S)-5-(2-fluoro-6-hydroxy-4-(((tetrahydro-2H-pyran-3-yl)amino)methyl)phenyl)-1,2,5-thiadiazolidin-3-one 1,1-dioxide] |
| 5.45 | 5.33 | 7.27 | CS(=O)(=O)N1CCC[C@@H](NCc2cc(O)c(N3CC(=O)NS3(=O)=O)c(F)c2)C1 [EXAMPLE 72, 5-[2-fluoro-6-hydroxy-4-[[[(3R)-1-methylsulfonyl-3-piperidyl]amino]methyl]phenyl]-1,1-dioxo-1,2,5-thiadiazolidin-3-one] |
| 4.96 | 5.25 | 7.77 | O=C1CN(c2c(O)cc(CN[C@@H]3CCCN(S(=O)(=O)C4CC4)C3)cc2F)S(=O)(=O)N1 [EXAMPLE 74, 5-[4-[[[(3R)-1-cyclopropylsulfonyl-3-piperidyl]amino]methyl]-2-fluoro-6-hydroxy-phenyl]-1,1-dioxo-1,2,5-thiadiazolidin-3-one] |
| ≤ 4.82 | ≤ 4.82 | 6.05 | CC(C)CCN1CCN(c2cc(O)c(N3CC(=O)NS3(=O)=O)c(F)c2)CC1 [EXAMPLE 83, 5-(2-fluoro-6-hydroxy-4-(4-isopentylpiperazin-1-yl)phenyl)-1,2,5-thiadiazolidin-3-one 1,1-dioxide] |
| ≤ 4.82 | ≤ 4.82 | 6.47 | COCCN1CCN(c2cc(O)c(N3CC(=O)NS3(=O)=O)c(F)c2)CC1 [EXAMPLE 86, 5-(2-fluoro-6-hydroxy-4-(4-(2-methoxyethyl)piperazin-1-yl)phenyl)-1,2,5-thiadiazolidin-3-one 1,1-dioxide] |
| ≤ 4.82 | ≤ 4.82 | 6.50 | CN(C)C1CCN(c2cc(O)c(N3CC(=O)NS3(=O)=O)c(F)c2)CC1 [EXAMPLE 87, 5-(4-(4-(dimethylamino)piperidin-1-yl)-2-fluoro-6-hydroxyphenyl)-1,2,5-thiadiazolidin-3-one 1,1-dioxide] |
| ≤ 4.82 | ≤ 4.82 | 5.67 | COCCN1CCC(Nc2cc(O)c(N3CC(=O)NS3(=O)=O)c(F)c2)CC1 [EXAMPLE 90, 5-(2-fluoro-6-hydroxy-4-((1-(2-methoxyethyl)piperidin-4-yl)amino)phenyl)-1,2,5-thiadiazolidin-3-one 1,1-dioxide] |
| ≤ 4.82 | ≤ 4.82 | 5.35 | CN1CCC(c2ccc(O)c(N3CC(=O)NS3(=O)=O)c2F)CC1 [EXAMPLE 106, 5-(2-fluoro-6-hydroxy-3-(1-methylpiperidin-4-yl)phenyl)-1,2,5-thiadiazolidin-3-one 1,1-dioxide] |
